# Tests used:
# SCCVII tumor = experiment: Anti-cancer assay: SCCVII tumor volume in C3H mice; format: in vivo; conditions: male C3H mice with subcutaneous SCCVII tumors; 1.15 mg/mL in 5% DMSO/water, intraperitoneal, q.o.d. on Days 0, 2 and 4 (3 doses)
# Experimental: Mice with SCC VII tumors were treated with Compound 1, which has the following chemical structure.
# The Treatment Composition was Compound 1 in a water/DMSO carrier. The Treatment Composition was prepared by dissolving 2.3 mg of Compound 1 in 0.1 mL of DMSO and mixing the resultant solution with 1.9 mL of water to provide a solution containing 1.15 mg/mL of Compound 1. The concentration of dimethylsulfoxide (DMSO) in the Treatment Composition was 5%.
# Male C3H mice were obtained from Charles River Laboratories and maintained under specific pathogen-free conditions. Mice were housed five animals per cage and autoclaved food and water was provided ad libitum. Cages were located in rooms having a temperature of 65±2 degrees Fahrenheit, a humidity of 50%±5%, and a 12-hour day-and-night light cycle. Mice were 7-8 weeks old, with a body weight in the range of 22-25 grams, at the time inoculated with tumor cells.
# Mice were inoculated subcutaneously with 5×10^5 SCCVII tumor cells in 0.05 mL Hank's solution on the back. […] The length and width of the tumors were measured with calipers immediately before treatment and three times a week thereafter until the tumor volume reached at least four times (4×) the original pre-treatment volume. Tumor volume (mm^3) was calculated according to the formula: Tumor Volume=π/6×length×width^2 Part II: Results
# [1] = Toxicity evaluation in healthy rats; format: in vivo; conditions: for Clinical observations: femoral vein infusion
# Experimental: Compound 1 was administered to healthy rats and the rats were evaluated for evidence of toxic side effects due to Compound 1. Experimental procedures and results are described below.
# Two groups of 3 male rats each were given a 100 or 300 mg/kg dose of Compound 1 prepared in 0.9% saline solution. A third group of 3 rats were given saline alone. Doses were delivered via a femoral vein. The 100 mg/kg dose was delivered using a 10 mg/mL solution at a dose volume of 10 mL/kg and an infusion rate of 15 mL/hr. The 300 mg/kg dose was delivered using a 20 mg/mL solution at a dose volume of 15 mL/kg and an infusion rate of 15 mL/hr.
smiles,measurement,setting,value
N[C@@H](CSCC(=O)N1CC([N+](=O)[O-])([N+](=O)[O-])C1)C(=O)O [Compound 1],Tumor volume versus untreated control,SCCVII tumor,smaller than tumors in mice that did not receive the Treatment Composition
same,Toxicity (overall conclusion),"[1]; healthy male rats, 100 or 300 mg/kg in 0.9% saline via femoral vein, observed for 24 hours",no significant toxicity was observed
same,Clinical observations,"[1]; rats, 100 mg/kg dose, observed for 24 hours",No notable clinical observations
same,Clinical observations,"[1]; rats, 300 mg/kg dose, observed for 24 hours",pale during the first 3 hours post dose
same,Gross changes in the lungs at necropsy,"[1]; rats, 100 or 300 mg/kg, necropsy after 24 hours",no gross changes in the lungs
same,Kidney observation at necropsy,"[1]; rats, 100 or 300 mg/kg, necropsy after 24 hours, significance undetermined",Mottled kidneys were observed in most rats

# Source: patent publication US9139519B2, “Organonitro thioether compounds and medical uses thereof” (EPICENTRX, INC., priority 2011, dated 2015)
